Data reported in patent US20250127913A1, “BIFUNCTIONAL FOLATE RECEPTOR BINDING COMPOUNDS” (LYCIA THERAPEUTICS, INC., priority 2021, published 2025).

What was measured:
[1] = biological target: TNFα trimer (Homo sapiens, UniProt P01375); assay: SPR binding kinetics of compounds to TNFα trimer; conditions: class symbols
Experimental: Streptavidin 100 μg/mL Streptavidin (Invitrogen Cat #: 434302) diluted in 10 mM sodium acetate, pH 4.5) was immobilized to both the reference and active surfaces as described in Example 51. The surfaces were conditioned with three injections of running Buffer (10 mM HEPES, 150 mMNaCl, 0.05% T20, pH 7.5, 2% DMSO) at a flow rate of 10 μL/min, Contact time: 60 s. Flow rate: 10 μL/min. The active surface was treated with biotinylated linked TNFα trimer 20 μg/mL diluted in running buffer at a flow rate of 5 μL/min contact time: 600 s, yielding a final response of ˜3000 RU. Example compounds were then serially diluted 1:1 in running buffer (10 mM HEPES, 150 mM NaCl, 0.05% T20, pH 7.5, 2% DMSO) from 30 uM to 937.5 nM and flowed over the active and reference surfaces from lowest concentration to greatest concentration in the single-cycle kinetics format, and then allowed to dissociate in running buffer for 7200 s, at 30 μL/min. Sensorgrams were solvent corrected, double-referenced, and the data fitted and analyzed in Biacore Insight Evaluation Software Version 3.0.11.15423.

[2] = tested on: THP-1 cells; assay: Compound mediated uptake of TNFα-pHrodo in THP-1 cells (flow cytometry); type: cell-based; parameters: key to Uptake in THP1 cells (run) 2 / Uptake in THP1 cells (run) 3 / Uptake in THP1 cells (run) 4: + = ΔMFI less than that of I-17; ++ = ΔMFI ≈ to that of I-17; +++ = ΔMFI greater than that of I-17; conditions: ΔMFI compared with I-17, uptake at 10 μM
Experimental: THP-1 cells, a monocytic leukemia cell line that endogenously express folate receptor beta, were used as a model system to measure example compound stimulated uptake of in-house produced TNFα conjugated to the pH sensitive fluorescent dye pHrodo green (ThermoFisher Scientific #P35369).
THP-1 cells were maintained in RPMI (Gibco #61870143) with 10% v/v FBS (VWR #89510-188) with 2 mM L-alanyl-L-glutamine dipeptide, 100 units/ml penicillin and 100 μg/ml streptomycin (Gibco #15140148). Cells were pelleted, resuspended in folate-free RPMI (Gibco #27016021) and seeded at 50,000 cells per well of a 96 well plate. Example compound was added to each well as a log 2 dilution series ranging from 20 μM to 125 nM final concentration. Cells were incubated for 24 hrs and washed/resuspended in phosphate buffered saline (pH 7.4) with 1% w/v BSA. Uptake was measured using a Novocyte Advanteon Flow Cytometer (Agilent Technologies) with the […] and FITC detection configuration.

[3] = biological target: TNFα and streptavidin immobilized FOL2R (Homo sapiens (Human), UniProt P01375+P14207); assay: Ternary complex SPR assay; type: binding; conditions: 10 nM compound, max response normalized to expected response; for TC 150 nM- tagless TNF Normalized: 150 nM untagged TNF; for TC 300 nM- tagless TNF Normalized: 300 nM untagged TNF
Chain of TNFα and streptavidin immobilized FOL2R (P14207 17-230): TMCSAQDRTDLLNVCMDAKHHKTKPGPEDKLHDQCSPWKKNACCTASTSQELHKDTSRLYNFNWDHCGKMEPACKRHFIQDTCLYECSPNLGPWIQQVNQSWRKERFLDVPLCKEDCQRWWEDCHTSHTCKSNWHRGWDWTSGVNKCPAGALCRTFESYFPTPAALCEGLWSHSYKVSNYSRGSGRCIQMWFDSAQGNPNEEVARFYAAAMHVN
Chain of TNFα and streptavidin immobilized FOL2R (P01375 77-233): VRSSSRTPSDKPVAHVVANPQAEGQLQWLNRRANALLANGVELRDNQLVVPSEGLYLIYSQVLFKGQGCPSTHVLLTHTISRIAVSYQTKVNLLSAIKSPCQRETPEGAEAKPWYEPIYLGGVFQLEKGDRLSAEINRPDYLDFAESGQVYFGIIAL
Experimental: Folate receptor-TNFα ternary complex SPR assays were conducted on a Biacore 8K instrument (Cytiva) using biotinylated folate receptor beta (Acro Biosystems). Folate receptor was immobilized at -1800 RU on a streptavidin chip (Cytiva) in 10 mM HEPES pH 7.5, 150 mM NaCl, 0.05% Tween 20. Untagged TNF was preincubated with 10 nM compound for 6 hr in 10 mM HEPES pH 7.5, 150 mM NaCl, 0.05 Tween 20, 2% DMSO at 25° C. Samples were then injected over the folate receptor surface at 30 μl/min with an association time of 110 s and a dissociation time of 600 s. Surfaces were regenerated with 4 M MgCl2 at 30 μl/mm for 30 s. The maximum measured response was normalized by comparison to the maximum expected response for each compound.

[4] = biological target: T1, folate receptor beta (Homo sapiens (Human), UniProt P14207); assay: Folate receptor binding assay (fluorescence polarization); conditions: 2.5 nM folate receptor beta, 2 nM FR-Cy probe, 2 hr incubation; read-out: FOLR2-FP
T1 sequence (P14207 17-255): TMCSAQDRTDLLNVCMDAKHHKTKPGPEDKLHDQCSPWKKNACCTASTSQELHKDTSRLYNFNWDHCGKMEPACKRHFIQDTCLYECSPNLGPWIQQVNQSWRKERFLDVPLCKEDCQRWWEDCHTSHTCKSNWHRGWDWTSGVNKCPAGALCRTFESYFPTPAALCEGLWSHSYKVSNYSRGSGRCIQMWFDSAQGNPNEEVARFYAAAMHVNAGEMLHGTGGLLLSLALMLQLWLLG
Experimental: Folate receptor binding was measured in black 96-well plates using a fluorescence polarization assay. A fluorescent probe consisting of a folate analog linked to Cy5 (FR-Cy) was custom synthesized.
Test compounds were resuspended in DMSO and 3-fold serial dilutions were made from 300-0.015 μM (100× final concentrations). Binding reactions were conducted in 200 μl final volume in 20 mM Hepes (pH 7.5) 250 mM NaCl 0.0150 Tween-20 1% DMSO with 2.5 nM folate receptor beta (Acro Biosystems) and 2 nM probe. Fluorescence polarization was measured using λex=620 nm, λem=688 nm on an Envision plate reader (Perkin Elmer) after 2 hr incubation time. Dose responses were conducted in duplicate and normalized to the response with DMSO (high) and 1 μM folic acid (low) on each plate. IC50 values were determined by fitting to 4-parameter curves in GraphPad Prism.

[5] = biological target: TNFα (Homo sapiens (Human), UniProt P01375); assay: TNFα binding assay (time-resolved FRET, biotinylated TNFα); conditions: 1 nM biotinylated TNFα, 80 nM probe, 16 hr incubation; read-out: TNF-HTRF-biotin
Chain of TNFα (P01375 77-233): as the sequence (P01375 77-233) above
Experimental: TNFα binding was measured in black 96-well plates using a time-resolved FRET assay using a previously described fluorescence acceptor TNFα probe (Xiao et al J. Med. Chem. 2020). Biotinylated TNFα was purchased from Acro Biosystems. Binding reactions were conducted in 20 mM Hepes (pH 7.5) 10 mM MgCl2 0.015% Tween-20 0.05 mg/ml BSA 2% DMSO with 1 nM TNFα 0.5 nM Streptavidin-Tb and 80 nM probe. Test compounds were resuspended in DMSO and 3-fold serial dilutions were made at 100× final concentrations. Fluorescence was measured using λex=340 nm, λem=490, 520 nm on an SpectraMax M5e plate reader (Molecular Devices) after 16 hr incubation time. Dose responses were conducted in duplicate and normalized to the response with DMSO (high) and 100 nM (R)-3-(1-((3-chloro-7-fluoro-6-(2-(2-hydroxypropan-2-yl)pyrimidin-5-yl)-2-methyl-1,5-naphthyridin-4-yl)amino)ethyl)-4-fluorobenzonitrile (low) on each plate. IC50 values were determined by fitting to 4-parameter curves in GraphPad Prism.

[6] = biological target: T1, folate receptor beta; assay: Folate receptor SPR assay (biotinylated folate receptor beta on streptavidin chip); type: binding; conditions: for Rmax: biotinylated folate receptor beta on streptavidin chip; for kd / Kd / kon: multi-cycle kinetics, 25° C., 1:1 model; for Kd: read-out: FOLR2Biotin - SPR Kd; for kon: pH 7.5, read-out: ka
Experimental: Folate receptor SPR binding assays were conducted on a Biacore 8K instrument (Cytiva) using biotinylated folate receptor beta (Acro Biosystems). Briefly, folate receptor was immobilized at -550 RU on a streptavidin chip (Cytiva) in 10 mM HEPES pH 7.5, 150 mM NaCl, 0.05% Tween 20. Multi-cycle kinetic studies were conducted with 8 compound concentrations using 2-fold dilutions in 10 mM HEPES pH 7.5, 150 mM NaCl, 0.05% Tween 20, 2% DMSO at 25° C. A flow rate or 75 μl/mmn with an association time of 120 s and a dissociation time of 600 s were used. Surfaces were regenerated with 4 M MgCl2 at 30 μl/min for 30 s. Data were fit to a 1:1 model to determine the reported binding parameters.

Chain of TNFα trimer (P01375 77-233 limits assumed): as the sequence (P01375 77-233) above

Cc1nc2cc(F)c(-c3cnc(OCCCCCNC(=O)CC[C@H](NC(=O)c4ccc(NCc5cnc6nc(N)nc(O)c6n5)cc4)C(=O)O)nc3)nc2c(N[C@H](C)c2cc(C#N)ccc2F)c1Cl [Compound I-13, N2-(4-(((2-amino-4-hydroxypteridin-6-yl)methyl)amino)benzoyl)-N5-(5-((5-(7-chloro-8-(((R)-1-(5-cyano-2-fluorophenyl)ethyl)amino)-3-fluoro-6-methyl-1,5-naphthyridin-2-yl)pyrimidin-2-yl)oxy)pentyl)-L-glutamine]
Kd [1]: < 100 nM
Uptake in THP1 cells (run) 2 ([2]; run 2): +
Uptake in THP1 cells (run) 3 ([2]; run 3): ++
Uptake in THP1 cells (run) 4 ([2]; run 4): ++

Cc1nc2cc(F)c(-c3cnc(N4CCN(C(=O)COCCn5cc(CN(C)CCOCCOCCOCCNC(=O)CC[C@H](NC(=O)c6ccc(NCc7cnc8nc(N)nc(O)c8n7)cc6)C(=O)O)nn5)CC4)nc3)nc2c(N[C@H](C)c2cc(C#N)ccc2F)c1Cl [Compound I-94, (S)-18-(4-(((2-amino-4-hydroxypteridin-6-yl)methyl)amino)benzamido)-1-(1-(2-(2-(4-(5-(7-chloro-8-(((R)-1-(5-cyano-2-fluorophenyl)ethyl)amino)-3-fluoro-6-methyl-1,5-naphthyridin-2-yl)pyrimidin-2-yl)piperazin-1-yl)-2-oxoethoxy)ethyl)-1H-1,2,3-triazol-4-yl)-2-methyl-15-oxo-5,811-trioxa-2,14-diazanonadecan-19-oic acid]
TC 150 nM- tagless TNF Normalized [3]: 16.3%
TC 300 nM- tagless TNF Normalized [3]: 18.5%
IC50 [4]: 9.3 nM
IC50 [5]: 22 nM
Rmax [6]: 15.4 RU
kd [6]: 0.000169 s⁻¹
Kd [6]: 0.0194 nM
kon [6]: 8.72e+06 M⁻¹ s⁻¹

Cc1nc2cc(F)c(-c3cnc(N4CCN(C(=O)COCCn5cc(COCCOCCOCCN6CCN(C(=O)CC[C@H](NC(=O)c7ccc(NCc8cnc9nc(N)nc(O)c9n8)cc7)C(=O)O)CC6)nn5)CC4)nc3)nc2c(N[C@H](C)c2cc(C#N)ccc2F)c1Cl [Compound I-95, (S)-2-(4-(((2-amino-4-hydroxypteridin-6-yl)methyl)amino)benzamido)-5-(4-(2-(2-(2-((1-(2-(2-(4-(5-(7-chloro-8-(((R)-1-(5-cyano-2-fluorophenyl)ethyl)amino)-3-fluoro-6-methyl-1,5-naphthyridin-2-yl)pyrimidin-2-yl)piperazin-1-yl)-2-oxoethoxy)ethyl)-1H-1,2,3-triazol-4-yl)methoxy)ethoxy)ethoxy)ethyl)piperazin-1-yl)-5-oxopentanoic acid]
TC 150 nM- tagless TNF Normalized [3]: 17.3%
TC 300 nM- tagless TNF Normalized [3]: 18.6%
IC50 [4]: 11 nM
IC50 [5]: 26 nM
Rmax [6]: 14.8 RU
kd [6]: 0.000337 s⁻¹
Kd [6]: 0.0215 nM
kon [6]: 1.56e+07 M⁻¹ s⁻¹

Cc1nc2cc(F)c(-c3cnc(N4CCN(C(=O)COCCn5cc(COCCOCCOCCOCCNC(=O)CCCNC(=O)c6ccc(NCc7cnc8nc(N)nc(O)c8n7)cc6)nn5)CC4)nc3)nc2c(N[C@H](C)c2cc(C#N)ccc2F)c1Cl [Compound I-96, (R)-4-(((2-amino-4-hydroxypteridin-6-yl)methyl)amino)-N-(1-(1-(2-(2-(4-(5-(7-chloro-8-((1-(5-cyano-2-fluorophenyl)ethyl)amino)-3-fluoro-6-methyl-1,5-naphthyridin-2-yl)pyrimidin-2-yl)piperazin-1-yl)-2-oxoethoxy)ethyl)-1H-1,2,3-triazol-4-yl)-15-oxo-2,5,8,11-tetraoxa-14-azaoctadecan-18-yl)benzamide]
TC 60 nM taggless TNF normalized ([3]; 60 nM untagged TNF): 12.3%
TC 150 nM- tagless TNF Normalized [3]: 17.1%
TC 300 nM- tagless TNF Normalized [3]: 19.2%
IC50 [4]: 20 nM
IC50 [5]: 56 nM
Rmax [6]: 17.1 RU
kd [6]: 0.00129 s⁻¹
Kd [6]: 0.101 nM
kon [6]: 1.27e+07 M⁻¹ s⁻¹

Cc1nc2cc(F)c(-c3cnc(N4CCN(C(=O)COCCn5cc(COCCOCCOCCOCCNC(=O)CC[C@H](NC(=O)c6ccc(SCCc7cc8c(=O)[nH]c(N)nc8[nH]7)cc6)C(=O)O)nn5)CC4)nc3)nc2c(N[C@H](C)c2cc(C#N)ccc2F)c1Cl [Compound I-98, (S)-18-(4-((2-(2-amino-4-oxo-4,7-dihydro-3H-pyrrolo[2,3-d]pyrimidin-6-yl)ethyl)thio)benzamido)-1-(1-(2-(2-(4-(5-(7-chloro-8-(((R)-1-(5-cyano-2-fluorophenyl)ethyl)amino)-3-fluoro-6-methyl-1,5-naphthyridin-2-yl)pyrimidin-2-yl)piperazin-1-yl)-2-oxoethoxy)ethyl)-1H-1,2,3-triazol-4-yl)-15-oxo-2,5,8,11-tetraoxa-14-azanonadecan-19-oic acid]
TC 150 nM- tagless TNF Normalized [3]: 16.7%
TC 300 nM- tagless TNF Normalized [3]: 19.4%
IC50 [4]: 133 nM
IC50 [5]: 19 nM
Rmax [6]: 14.8 RU
kd [6]: 0.000774 s⁻¹
Kd [6]: 0.172 nM
kon [6]: 4.49e+06 M⁻¹ s⁻¹
